Here are results for 100 compounds from PubChem BioAssay AID608 (Sanford-Burnham Center for Chemical Genomics, 2007).

Broadly, the Kd is the equilibrium constant for the complex coming apart.

Calls of active or inactive are those of the source. No rule for the calls is given here. A value given as a limit tells only on which side of the number the result lay.

In this test the target is Peptidyl-prolyl cis-trans isomerase FKBP1A (Homo sapiens) (UniProt P62942). The experiment in a line: FKBP12 binders, biophysical, NMR detection (AID 608). Particulars: NMR binding, purified FKBP12.
Chain of Peptidyl-prolyl cis-trans isomerase FKBP1A (Homo sapiens) (P62942 whole entry, looked up): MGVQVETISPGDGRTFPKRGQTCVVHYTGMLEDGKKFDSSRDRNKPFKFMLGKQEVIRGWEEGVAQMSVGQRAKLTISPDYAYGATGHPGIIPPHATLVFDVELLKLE
With `COC(=O)C1=C(C)N(c2cccc(C(C)=O)c2)C(=O)C1`, the Kd is > 4 mM (inactive). Regarding `S=C(NC1=NCCS1)Nc1ccccc1`, the Kd is > 4 mM (inactive). For `Nc1cccc(-c2cnco2)c1`, the Kd is > 4 mM (inactive). The value for `C=C[C@H]1CN2CC[C@H]1C[C@@H]2[C@H](O)c1ccnc2ccccc12` was > 4 mM (inactive); that for `CCN(CC)S(=O)(=O)c1ccc(F)cc1` was > 4 mM (inactive). Take `CC(C)(C#N)O[C@@H]1O[C@H](CO)[C@@H](O)[C@H](O)[C@H]1O`: the Kd was > 4 mM (inactive).

Regarding `Cc1csc(NC(=O)c2cccs2)n1`, the Kd was > 4 mM (inactive). `CC1=CC(=O)CC(C)(C)C1(O)/C=C/C(C)=C\C(=O)O` (stereo not given): the Kd is > 4 mM (inactive). The result for `C=CCCCCCCCCCCCC(O)CC(O)COC(C)=O` (stereo not given) reads > 4 mM (inactive); that for `CC(=O)Nc1nnc(-c2ccc(Cn3c(-c4cscn4)nc4ccccc43)cc2)s1`, “inactive”. Consider `CC(C)CNc1cc(=O)n(C)c(=O)n1C`, for which the Kd was > 4 mM (inactive).

As for `Cc1cc(C)nc(Nc2n[nH]c(Cc3ccccc3)n2)n1`, the Kd was > 4 mM (inactive). As for `CC(C)c1nnc(N)s1`, the Kd is > 4 mM (inactive). `CC(=O)Nc1ccc(-c2ccc3nncn3n2)cc1`: the Kd is > 4 mM (inactive). As for `Nc1ncnc(NCCOCCO)c1[N+](=O)[O-]`, the Kd was > 4 mM (inactive). As for `O=c1c[n+]([O-])c2ccccc2n1OCc1ccccn1`, the Kd was > 4 mM (inactive). Regarding `CC(C)=CCC/C(C)=C/CC/C(C)=C/CC/C(C)=C/CC/C(C)=C/CC/C(C)=C/CC/C(C)=C/CC/C(C)=C/CC/C(C)=C/CO`, the Kd is > 4 mM (inactive).

`CCC(CCC(C)[C@H]1CCC2C3CC=C4C[C@@H](O)CC[C@]4(C)C3CC[C@@]21C)C(C)C` (stereo not given in full): the Kd is > 4 mM (inactive). As to `CS(=O)(=O)c1cccc(C(=O)Nc2nccs2)c1`, the Kd was > 4 mM (inactive).

For `S=C(Cc1cccnc1)N1CCOCC1`, the Kd is > 4 mM (inactive). On to `CCOc1ccc(-c2n[nH]c(=S)n2C)cc1`, for which the Kd is > 4 mM (inactive). The result for `O=C1c2cccnc2C(=O)N1Cc1ccc2c(c1)OCO2` reads > 4 mM (inactive); that for `Cc1cc(C)nc(N(C#N)Cc2ccccc2)n1`, > 4 mM (inactive); that for `NC(=O)Cc1nc2ccccc2[nH]1`, > 4 mM (inactive).

On to `COC(=O)CC1C(C)(C)C(OC(C)=O)[C@@H]2[C@@H](OC(C)=O)[C@]34O[C@@]2(O)[C@]1(C)C3CC[C@]1(C)C4=CC(=O)O[C@H]1c1ccoc1` (stereo not given in full), for which the Kd is > 4 mM (inactive). The result for `Cn1c(=O)cc(N2CCCCC2)[nH]c1=O` reads > 4 mM (inactive); that for `CC(=O)CNc1cc(CNC(C)=O)c(C)cc1C`, > 4 mM (inactive).

Consider `NCC(O)c1ccc(O)cc1` (stereo not given), for which the Kd was > 4 mM (inactive). On to `COc1ccc(C2CC(=O)c3ccc(OC)cc3O2)cc1` (stereo not given), for which the Kd is > 4 mM (inactive). Consider `CNCc1ccccc1`, for which the Kd is > 4 mM (inactive).

`COc1ccc(C(C)=O)c(O)c1`: the Kd is > 4 mM (inactive). `Nc1cccc(CC(=S)N2CCOCC2)c1`: the Kd was > 4 mM (inactive).

Turning to `NS(=O)(=O)c1ccc(NC(=O)C2CC2)cc1`, the Kd is > 4 mM (inactive).

Turning to `O=C(O)C1(S(=O)(=O)c2ccccc2)CC1`, the Kd is > 4 mM (inactive). As for `O=C(NCCO)c1cc2ccccc2c(=O)s1`, the Kd was > 4 mM (inactive). Consider `O=[N+]([O-])c1cccc(-c2nnco2)c1`, for which the Kd was > 4 mM (inactive).

On to `NS(=O)(=O)c1ccc(NC(=O)C(F)(F)F)cc1`, for which the Kd was > 4 mM (inactive). In the case of `Nc1ccccc1-n1cccn1`, the Kd is > 4 mM (inactive). For `CN(C)C(=O)Nc1ccc2c(c1)nnn2C`, the Kd is > 4 mM (inactive). For the compound `CC(C)Oc1ccc(C2CC(=O)NNC2=O)cc1` (stereo not given), the Kd was > 4 mM (inactive).

`Cc1cc(N2CCCC2=O)c(N)cc1N`: the Kd is > 4 mM (inactive).

On to `COc1ccc(C(N)=O)cc1N`, for which the Kd was > 4 mM (inactive). On to `O=C(c1ccccc1)N1CCN(c2ccccc2F)CC1`, for which the Kd is > 4 mM (inactive). Consider `CN(C)C(=O)CSc1nc2ccccc2c(=O)[nH]1`, for which the Kd is > 4 mM (inactive).

With `O=C(O)C1CCN(S(=O)(=O)c2cccs2)CC1`, the Kd is > 4 mM (inactive). On to `CC(=O)Nc1nnc(-c2ccncc2)s1`, for which the Kd was > 4 mM (inactive). The result for `Clc1ccc(-n2ccnc2)nn1` reads > 4 mM (inactive); that for `O=C(O)c1ccc(-n2cccc2)cc1`, > 4 mM (inactive). On to `CN1C(=O)c2ccc(C(=O)NCc3ccccc3)cc2C1=O`, for which the Kd was > 4 mM (inactive). The value for `O=C(O)c1ccc2sccc2c1` was > 4 mM (inactive); that for `C[C@@H]1O[C@@H](O[C@H]2CC[C@]3(C=O)C4CC[C@]5(C)[C@@H](C6=CC(=O)OC6)CC[C@]5(O)C4CC[C@]3(O)C2)[C@H](O)[C@H](O)[C@H]1O` (stereo not given in full) was > 4 mM (inactive). For the compound `COc1ccc2ccc(=O)oc2c1`, the Kd was > 4 mM (inactive). As to `O=C(NCCO)c1ccccc1I`, the Kd was > 4 mM (inactive). Take `CC(=O)O[C@@H]1CC2C(C)(C)[C@H](O)CC[C@]2(C)C2CC[C@@]3(C)[C@H](c4ccoc4)OC(=O)C4OC43[C@@]21C` (stereo not given in full): the Kd is > 4 mM (inactive).

Regarding `Cc1ccccc1NC(=O)c1ccccc1`, the Kd was > 4 mM (inactive). In the case of `CC(=O)NC(=S)Nc1nc2ccccc2n1C(C)=O`, the Kd is > 4 mM (inactive). In the case of `NCC(N)C(=O)c1ccccc1` (stereo not given), the Kd was > 4 mM (inactive). For `O=C(Nc1nnc(-c2ccccc2Cl)o1)c1ccco1`, the Kd was > 4 mM (inactive).

`OC[C@H]1O[C@@H](Oc2ccc(O)cc2)[C@H](O)[C@@H](O)[C@@H]1O`: the Kd was > 4 mM (inactive). As for `Cc1cc(C)nc(/N=C(/N)N2CCC(C(N)=O)CC2)n1`, the Kd was > 4 mM (inactive). The value for `Cc1sc2nc(SCC(=O)N(C)C)[nH]c(=O)c2c1C` was > 4 mM (inactive). The result for `CC(=O)O[C@H]1C[C@@H](OC(C)=O)C(C)(C)C2C[C@@H](OC(C)=O)[C@]3(C)C(CC[C@@]4(C)[C@H](c5ccoc5)OC(=O)[C@H]5O[C@]543)[C@]21C` (stereo not given in full) reads > 4 mM (inactive).

As for `CNC(Cc1c[nH]c2ccccc12)C(=O)O` (stereo not given), the Kd is > 4 mM (inactive).

For `O=C(O)c1csc2ccccc12`, the Kd was > 4 mM (inactive). As for `CC(NC(=O)c1cccnc1)c1ccc2c(c1)OCO2` (stereo not given), the Kd is > 4 mM (inactive). As to `CN(C(=O)NC1CCS(=O)(=O)C1)C1CCCCC1` (stereo not given), the Kd was > 4 mM (inactive). Consider `CC(=O)Nc1nnc(-c2ccco2)o1`, for which the Kd was > 4 mM (inactive). Take `Cc1cc(N(CN2CCCC2=O)C(=O)c2ccccc2)no1`: the Kd is > 4 mM (inactive). The result for `CC1(C)C2C[C@@H](O)[C@]3(C)C(CC[C@@]4(C)[C@H](c5ccoc5)OC(=O)[C@H]5O[C@]543)[C@@]2(C)[C@@H](O)C[C@H]1O` (stereo not given in full) reads > 4 mM (inactive); that for `Cc1ccccc1C(=O)Nc1cccc(N)c1`, > 4 mM (inactive). On to `OCC1CCCC1O` (stereo not given), for which the Kd is > 4 mM (inactive). The result for `O=C(O)c1c[nH]c2ccccc12` reads > 4 mM (inactive); that for `CCCNC(=O)CSc1ncccc1C(=O)O`, > 4 mM (inactive). For the compound `CC[C@@]1(O)C[C@H](O[C@H]2C[C@H](N(C)C)[C@H](O)[C@H](C)O2)c2c(cc3c(c2O)C(=O)c2c(O)cccc2C3=O)[C@H]1C(=O)OC`, the Kd was > 4 mM (inactive). Turning to `O=C1CSC2(CN3CCC2CC3)N1` (stereo not given), the Kd is > 4 mM (inactive). The value for `S=C1NC(=S)NC(c2ccc3c(c2)OCO3)N1` was > 4 mM (inactive). The value for `Cc1ccsc1/C=c1\sc2ncnn2c1=O` was > 4 mM (inactive). As for `CNC(=S)Nc1cccc(C(=O)O)c1`, the Kd is > 4 mM (inactive).

As to `CC(C)=CC(=O)Nc1ccc2c(c1)OCO2`, the Kd is > 4 mM (inactive). On to `O=C1NC(=Nc2ccc(O)cc2)S/C1=C/c1ccco1`, for which the Kd was > 4 mM (inactive).

Consider `Cc1nnsc1C(=O)Nc1cccc(S(N)(=O)=O)c1`, for which the Kd is > 4 mM (inactive). The result for `O=C(c1cccnc1Cl)N1CCOCC1` reads > 4 mM (inactive). In the case of `CC(=O)Nc1nc(-c2cccs2)cs1`, the Kd was > 4 mM (inactive). Turning to `Nc1nnc(SCc2ccccc2Cl)s1`, the Kd was > 4 mM (inactive). On to `Oc1cccc2[nH]ccc12`, for which the Kd is > 4 mM (inactive). For the compound `COc1cc2c(cc1OC)C1=C(C#N)CCC(=O)N1CC2`, the Kd is > 4 mM (inactive). Take `CCC(=O)Nc1cccc(NC(C)=O)c1`: the Kd is > 4 mM (inactive). Take `OC1COCc2nc3ccccc3n2C1` (stereo not given): the Kd was > 4 mM (inactive). Turning to `O=c1c(O)c(-c2ccc(O)cc2O)oc2cc(O)cc(O)c12`, the Kd was > 4 mM (inactive). For the compound `CC(=O)Oc1cc2c(C(C)=O)coc2c2ccccc12`, the Kd is > 4 mM (inactive).

Take `O=c1[nH]c(=S)[nH]c2c1CCC2`: the Kd is > 4 mM (inactive). `CC(=O)NCC1(c2ccccc2)CCOCC1`: the Kd is > 4 mM (inactive).

As for `S=c1oc(-c2ccncc2)nn1CCc1ccncc1`, the Kd entry is “inactive”. As for `CN(c1ccccc1C(=O)N1CCOCC1)S(C)(=O)=O`, the Kd is > 4 mM (inactive).

In the case of `NC1=NN(c2ccccc2)C(=O)C1`, the Kd was > 4 mM (inactive). On to `N#Cc1cc(-c2ccccc2)oc1N`, for which the Kd is > 4 mM (inactive). Regarding `COc1ccc(-c2nc(C)sc2CC(=O)O)cc1`, the Kd was > 4 mM (inactive).

Consider `Cc1ccc(S(=O)(=O)CC(=O)N(C)C)cc1`, for which the Kd is > 4 mM (inactive). For `Cc1[nH]n(-c2ccccc2)c(=O)c1[N+](=O)[O-]`, the Kd is > 4 mM (inactive). Regarding `O=C(Nc1cccc2cccnc12)c1cccnc1`, the Kd is > 4 mM (inactive).
